These results are taken from patent publication US20240287121A1, “GALECTIN-3 INHIBITING C-GLYCOSIDE OXIMES” (GLYCOMIMETICS, INC., priority 2021, published 2024).

For the assay, the target named is T1, galectin-3 (Homo sapiens, UniProt P17931).
T1 construct: purchased IBL IBATGPO414
T1 sequence (P17931 whole entry): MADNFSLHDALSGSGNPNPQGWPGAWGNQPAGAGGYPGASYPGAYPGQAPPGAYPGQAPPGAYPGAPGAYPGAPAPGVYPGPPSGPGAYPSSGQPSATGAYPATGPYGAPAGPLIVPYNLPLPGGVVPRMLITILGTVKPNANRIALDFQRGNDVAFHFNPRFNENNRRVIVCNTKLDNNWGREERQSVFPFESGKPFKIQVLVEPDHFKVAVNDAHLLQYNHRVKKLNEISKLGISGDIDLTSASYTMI
The experiment in a line: Galectin-3 Activity ELISA assay: inhibition of binding of galectin-3 to immobilized Galβ1-3GlcNAc polymer. The settings on record: competitive ELISA; Galβ1-3GlcNAc polymer on streptavidin plate; A450 readout; read-out: Galectin-3 Antagonist Activity IC50. The text has this:
An inhibition assay may be used to screen for antagonists of galectin-3. For example, an assay may be performed to characterize the capability of a compound described herein to inhibit interaction of galectin-3 with a Galβ1-3GlcNAc carbohydrate structure. The inhibition assay may be a competitive binding assay, which allows the determination of IC50 values. By way of example, a Galβ1-3GlcNAc polymer may be immobilized onto a matrix; a composition may be added to reduce nonspecific binding; the immobilized Galβ1-3GlcNAc polymer may be contacted with the candidate compound in the presence of galectin-3 group under conditions and for a time sufficient to permit galectin-3 to bind to the immobilized Galβ1-3GlcNAc polymer; the immobilized Galβ1-3GlcNAc polymer may be washed; and the amount of galectin-3 bound to the immobilized Galβ1-3GlcNAc polymer may be detected. Variations of such steps can be readily and routinely accomplished by a person of ordinary skill in the art.
Galectin-3 antagonists were evaluated for their ability to inhibit binding of galectin-3 to a Galβ1-3GlcNAc carbohydrate structure. The detailed protocol was as follows. A 1 μg/mL suspension of a Galβ1-3GlcNAcβ-3Galβ1-4GlcNAcβ-PAA-biotin polymer (Glycotech, catalog number 01-096) was prepared. A 100 μL aliquot of the polymer was added to the wells of a 96-well streptavidin-coated plate (R&D Systems, catalog number CP004). A 100 μL aliquot of 1× Tris Buffered Saline (TBS, Sigma, catalog number T5912-10×) was added to control wells. The polymer was allowed to bind to the streptavidin-coated wells for 1.5 hours at room temperature. The contents of the wells were discarded and 200 μL of 1×TBS containing 1% bovine serum albumin (BSA) was added to each well as a blocking reagent, and the plate was kept at room temperature for 30 minutes. The wells were washed three times with 1×TBS containing 0.1% BSA. A serial dilution of test compounds was prepared in a separate V-bottom plate (Corning, catalog number 3897). A 75 μL aliquot of the highest concentration of the compound to be tested was added to the first well in a column of the V-bottom plate, then 15 μl were serially transferred into 60 μL 1×TBS through the remaining wells in the column to generate a 1 to 5 serial dilution. A 60 μL aliquot of 2 ug/mL galectin-3 (IBL, catalog number IBATGPO414) was added to each well in the V-bottom plate. A 100 μL aliquot of the galectin-3/test compound mixture was transferred from the V-bottom plate into the assay plate containing the Galβ1-3GlcNAc polymer. Four sets of control wells in the assay plate were prepared in duplicate containing 1) both Galβ1-3GlcNAc polymer and galectin-3, 2) neither the polymer nor galectin-3, 3) galectin-3 only, no polymer, or 4) polymer only, no galectin-3. The plate was gently rocked for 1.5 hours at room temperature. The wells were washed four times with TBS/0.1% BSA. A 100 μL aliquot of anti-galectin-3 antibody conjugated to horse radish peroxidase (R&D Systems, from DGAL30 kit) was added to each well and the plate was kept at room temperature for 1 hour. The wells were washed four times with TBS/0.1% BSA. A 100 μL aliquot of TMB substrate solution was added to each well. The TMB substrate solution was prepared by making a 1:1 mixture of TMB Peroxidase Substrate (KPL, catalog number 5120-0048) and Peroxidase Substrate Solution B (KPL, catalog number 5120-0037). The plate was kept at room temperature for 10 to 20 minutes. The color development was stopped by adding 100 μL 10% phosphoric acid (RICCA Chemical Co., catalog number 5850-16). The absorbance at 450 nm (A450) was measured using a FlexStation 3 plate reader (Molecular Devices). Plots of A450 versus test compound concentration and IC50 determinations were made using GraphPad Prism 6.
(In general: An ELISA detects its analyte on a solid surface through an enzyme-linked reagent.)
As a reminder, the IC50 is the point on the concentration scale where inhibition reaches its midpoint. In the case of `CCC(=NOCC1CC1)[C@@H](OCc1ccc(Cl)cc1)[C@@H]1OC(CO)[C@H](O)C(n2cc(-c3cc(F)c(F)c(F)c3)nn2)C1O` (stereo partly shown) [Compound 41], the IC50 amounted to 2.8 µM.

Take `[2H]C([2H])([2H])OC1C(n2cc(-c3cc(F)c(F)c(F)c3)nn2)[C@@H](O)C(CO)O[C@H]1[C@H](OCc1ccc(Cl)cc1)C(C)=NOCC1CC1` (stereo partly shown) [Compound 37]: the IC50 was determined as 10.6 µM.

Take `[2H]C([2H])([2H])OC1C(n2cc(-c3cc(F)c(F)c(F)c3)nn2)[C@@H](O)C(CO)O[C@H]1[C@H](OCc1ccc(Cl)cc1)C(C)=NOCC(C)C` (stereo partly shown) [Compound 38]: the 50% inhibitory concentration (IC50) came out at 16.7 µM.

On to `[2H]C([2H])([2H])OC1C(n2cc(-c3cc(F)cc(F)c3)nn2)[C@@H](O)C(CO)O[C@H]1[C@H](OCc1ccc(Cl)cc1)/C(=N/OC)C([2H])([2H])C([2H])([2H])[2H]` (stereo partly shown) [Compound 35], for which the half-inhibitory concentration (IC50) was 6.9 µM.

For the molecule `[2H]C([2H])([2H])OC1C(n2cc(-c3cc(F)c(F)c(F)c3)nn2)[C@@H](O)C(CO)O[C@H]1[C@H](OCc1ccc(Cl)cc1)C(C)=NOCC` (stereo partly shown) [Compound 36], the IC50 was 10.3 µM.

On to `CCC(=NOC)[C@@H](OCc1ccc(Cl)cc1)[C@@H]1OC(CO)[C@H](O)C(n2cc(-c3cc(F)c(F)c(F)c3)nn2)C1O` (stereo partly shown) [Compound 34], for which the IC50 worked out at 0.5 µM.

As for `CCON=C(CC)C(OCc1ccc(Cl)cc1)C1OC(CO)C(O)C(n2cc(-c3cc(F)c(F)c(F)c3)nn2)C1O` (stereo not shown) [Compound 40], the IC50 is 0.9 µM.
